Results taken from patent publication US20050003500A1, “(2S, 3S) -2,3-butanediol dehydrogenase” (Daicel Chemical Industries, Ltd., priority 2003, published 2005).

Target: L-2,3-butanediol dehydrogenase (Corynebacterium glutamicum, UniProt Q9ZNN8)
Experiment: not given
Settings: Biosci. Biotechnol. Biochem. 65, 1876-1878 (2001); cited from earlier work

L-2,3-butanediol dehydrogenase, sequence (Q9ZNN8 whole entry): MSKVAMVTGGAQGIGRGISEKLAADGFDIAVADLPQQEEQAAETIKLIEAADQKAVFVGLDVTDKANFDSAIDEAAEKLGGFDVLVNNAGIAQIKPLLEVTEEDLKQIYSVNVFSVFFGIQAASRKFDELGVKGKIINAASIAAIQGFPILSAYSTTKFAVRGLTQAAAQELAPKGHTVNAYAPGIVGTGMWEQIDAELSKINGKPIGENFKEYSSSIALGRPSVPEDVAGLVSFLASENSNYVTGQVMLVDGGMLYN

In the case of CCC(C)O (stereo not drawn) [2-butanol], the “activity of the enzyme towards the substrate” value is given as “lacks activity”.

Test system: (2S,3S)-2,3-butanediol dehydrogenase
Experiment: Reductive activity of the purified enzyme on various substrates, NADH as coenzyme
Assay type: biochemical, Zoogloea ramigera
Settings: reduction; substrate 50 mM, standard reaction condition; activity on 2,3-butanedione taken as 100
Method: React a reaction solution containing 50 mM potassium phosphate buffer (pH 5.5), 0.2 mM NADH, 20 mM 2,3-butanedione and the enzyme at 30° C. Then, measure the decrease of absorbance at 340 nm relative to the decrease of NADH. 1 U is defined as the amount of enzyme that catalyzes a 1-μmol decrease of NADH in 1 minute. The protein can be quantified by a dye binding method using BioRad protein assay kit.
The reductive activity of the enzyme obtained in Example 1 was measured on various substrates (50 mM) under the standard reaction condition.

Compared with CC(=O)C(C)=O [2,3-Butanedione], CC(=O)C(C)O (stereo not drawn) [Acetoin] is lower in “Relative activity (%)” value: 100% for the first, 58.9% for the second.

Target: acetoin reductase (Klebsiella pneumoniae, UniProt Q48436)
Sequence (Q48436 whole entry): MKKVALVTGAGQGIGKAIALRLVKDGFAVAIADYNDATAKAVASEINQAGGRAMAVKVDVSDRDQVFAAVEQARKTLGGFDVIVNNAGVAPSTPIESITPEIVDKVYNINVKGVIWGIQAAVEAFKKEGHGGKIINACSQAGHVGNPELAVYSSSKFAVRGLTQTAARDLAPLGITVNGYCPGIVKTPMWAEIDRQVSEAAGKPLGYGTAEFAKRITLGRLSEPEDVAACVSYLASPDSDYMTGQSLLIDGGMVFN
Experiment: not given
Settings: J. Ferment. Technol. 83, 32-37 (1997); cited from earlier work

For CC(O)C(C)O (stereo not drawn) [meso-2,3-butanediol], the “action of the enzyme on the substrate” value is given as “specifically act”.
In the case of C[C@H](O)[C@H](C)O [(2S,3S)-2,3-butanediol], the “action of the enzyme on the substrate” value is listed as “doesnot act”.

Test system: (2S,3S)-2,3-butanediol dehydrogenase
Experiment: Dehydrogenase (oxidative) activity of the purified enzyme on various substrates, NAD+ as coenzyme
Assay type: biochemical, Zoogloea ramigera
Settings: oxidation; substrate 50 mM, standard reaction condition; activity on (2S,3S)-2,3-butanediol taken as 100
Method: (§1) React a reaction solution containing 50 mM glycine-sodium hydroxide buffer (pH 11.0), 2.5 mM NAD^+, 50 mM (2S,3S)-2,3-butanediol and the enzyme at 30° C. Then, measure the increase of absorbance at 340 nm relative to the increase of NADH. 1 U is defined as the amount of enzyme that catalyzes a 1-μmol increase of NADH in 1 minute.
The dehydrogenase activity of the enzyme obtained in Example 1 was measured against various substrates (50 mM) under the standard reaction condition.

First: C[C@H](O)CO [(S)-1,2-propanediol]
Second: (R)-2-butanol
The “Relative activity (%)” value of the first is higher: 55.3% for the first, 1.11% for the second.

Compared with C[C@@H](O)CO [(R)-1,2-propanediol], OC[C@H](O)CCl [(S)-3-chloro-1,2-propanediol] is lower in “Relative activity (%)” value: 0.90% for the first, 0% for the second.

Going from CC(=O)C(C)O (stereo not drawn) [Acetoin] to C[C@@H](O)[C@@H](C)O [(2R,3R)-2,3-butanediol], the “Relative activity (%)” value rises from 0.26% to 2.89%.

Compared with OC[C@@H](O)CCl [(R)-3-chloro-1,2-propanediol], (S)-2-butanol is higher in “Relative activity (%)” value: 3.62% for the first, 43.3% for the second.

First: CC(O)C(C)O (stereo not drawn) [meso-2,3-butanediol]
Second: C[C@H](O)[C@H](C)O [(2S,3S)-2,3-butanediol]
The “Relative activity (%)” value of the first is lower: 0% for the first, 100% for the second.

Test system: (2S,3S)-2,3-butanediol dehydrogenase
Experiment: Activation of (2S,3S)-2,3-butanediol dehydrogenase activity by divalent ions
Assay type: biochemical, Zoogloea ramigera
Settings: divalent ion 1 mM; activity in the absence of the ions taken as 100
Method: as §1
The activation effect by a divalent ion can be measured as described above by adding 1 mM of a metal ion into the above-mentioned reaction solution.

First: [Mn+2] [Mn^2+]
Second: [Mg+2] [Mg^2+]
The “Relative activity (%)” value of the first is lower: 104% for the first, 110% for the second.

Going from [Cu+2] [Cu^2+] to [Ba+2] [Ba^2+], the “Relative activity (%)” value rises from 107% to 112%.

Going from [Co+2] [Co^2+] to [Zn+2] [Zn^2+], the “Relative activity (%)” value rises from 106% to 109%.

Going from [Ca+2] [Ca^2+] to [Ni+2] [Ni^2+], the “Relative activity (%)” value falls from 113% to 104%.

Test system: not listed separately
Experiment: (2S,3S)-2,3-butanediol oxidation activity of enzyme preparations from Zoogloea ramigera
Assay type: biochemical
Settings: fraction after each purification step
Method: as §1
Zoogloea ramigera strain DSM287 was cultured at 28° C. for 54 hours in 1.2 L of YPD medium that uses glycerol as a carbon source, and wet bacterial cells were prepared by centrifugation. Approximately 30 g of the obtained wet bacterial cells were suspended in a 50 mL solution of 50 mM potassium phosphate buffer (pH8.0) and 1 mM 2-mercaptoethanol. The cells were then disrupted using Multi-beads shocker (Yasui Kikai), and bacterial cell debris was removed by centrifugation to obtain cell-free extract. Protamine sulfate was added to this cell-free extract and nucleic acids were removed by centrifugation to yield the supernatant. Ammonium sulfate was added to this supernatant up to 30% saturation, and this was applied onto phenyl-sepharose column (2.6 cm×10 cm) equilibrated with standard buffer (10 mM Tris-HCl buffer (pH8.0) and 0.01% 2-mercaptoethanol) comprising 30% ammonium sulfate. After washing the column with the same buffer, gradient elution was performed with 30% to 0% saturated ammonium sulfate. […]

For Hydroxyapatite, the “Specific activity (U/mg)” value was 60.9 U/mg.
